{
  "source": "patent US7312239B2",
  "about": "“Medicament for prevention and/or therapy of arterial wall disorder” (Mitsubishi Pharma Corporation, priority 2002, dated 2007)",
  "key": {"[1]": {"experiment": "Total cholesterol, triglyceride and lipid peroxide in serum of balloon-injured cholesterol-fed rabbits", "format": "in vivo, Japanese white rabbits", "details": "10 mg/kg i.v. twice per day, before cholesterol food, at balloon injury, at sacrifice, vs control group", "description": "(§1) Japanese white rabbits were divided into two groups, an edaravone group (n=6) and a control group (n=6), and they were fed with 1% cholesterol food for 10 weeks. On the 8th week, the rabbits of both groups were injured such that their abdominal aorta was damaged by use of a balloon. For the edaravone group, edaravone was administered every day (10 mg/kg, intravenous injection twice per day) from the day before the balloon injury. For the control group, a physiological salt solution was administered. On the 10th week, the rabbits were sacrificed, and their abdominal aorta was excised. The ratio of a new intima to a new media (the ratio of the intimal area of a blood vessel section to the medial area thereof; I/M) was measured as follows. First, total 5 portions were cut out of the abdominal aorta into round slices each having a width of 5 mm, and HE-stained samples were prepared therefrom. A new intimal area and a new medial area were analyzed with computer software, and the mean value of the 5 portions was obtained, followed by calculation of I/M.\nMoreover, total cholesterol (TC), triglyceride (TG) and lipid peroxide (LPO) in serum were measured, before the rabbits were fed with cholesterol food, when they were injured by use of a balloon, and when they were sacrificed."}, "[2]": {"tested_on": "right common carotid artery injured by abrasion with a 2F balloon", "experiment": "Balloon injury of right common carotid artery in ovary-eliminated rats, I/M", "format": "in vivo", "details": "ovary elimination (OVX) female SD rats, 30 mg/kg/day oral for 3 days after operation, 14th day; p<0.01 vs OVX+V 1.36±0.12", "description": "(§2) 11′-week-old female SD rats were divided into two groups, an ovary elimination group (OVX) and an ovary non-elimination group (INT). To the OVX group, edaravone (Ed) (30 mg/kg/day) (n=8) or vehicle (V) (n=7) was orally administered, and to the INT group (n=4), vehicle (V) was administered. The vascular endothelium of the right common carotid artery was injured by abrasion with a 2F balloon. The above drugs were administered for 3 days immediately after the above operation. On the 14th day, the blood vessel was excised, and the ratio of a new intima to a new media (I/M) was calculated."}, "[3]": {"tested_on": "abdominal aorta of rabbits injured by use of a balloon", "experiment": "Balloon injury of abdominal aorta in cholesterol-fed rabbits, ratio of new intima to new media (I/M)", "format": "in vivo, Japanese white rabbits", "details": "rabbits on 1% cholesterol food, 10 mg/kg intravenous injection twice per day from the day before injury, 10th week, p=0.018 vs control 0.475±0.136", "description": "as §1"}, "[4]": {"tested_on": "right common carotid artery injured by abrasion with a 2F balloon", "experiment": "Balloon injury of carotid artery in OLETF rats with type II diabetes, I/M", "format": "in vivo", "details": "male OLETF rats with type II diabetes, administered from 3 days before to 14th day after operation; p<0.01 vs vehicle 1.12±0.15", "description": "as §2, with “calculated. 30-week-old male OLETF rats with type II diabetes were divided into two groups, an edaravone (Ed) administration group (n=4) and a vehicle (V) administration group (n=4). The above-described blood vessel injury was carried out on them. The above drugs were continuously administered from 3 days before the above operation to the 14th day after the above operation. Thereafter, the ratio of a new intima to a new media (I/M) was calculated.” for “calculated.”"}},
  "data": [
    {"compound": "CC1=NN(c2ccccc2)C(=O)C1", "note": "[edaravone, 3-methyl-1-phenyl-2-pyrazolin-5-one]", "values": [
      {"measurement": "lipid peroxide (LPO) in serum", "setting": "[1]", "value": "not significantly different"},
      {"measurement": "total cholesterol (TC) in serum", "setting": "[1]", "value": "not significantly different"},
      {"measurement": "triglyceride (TG) in serum", "setting": "[1]", "value": "not significantly different"},
      {"measurement": "ratio of a new intima to a new media (I/M)", "setting": "[2]", "value": "0.82±0.09"},
      {"measurement": "ratio of a new intima to a new media (I/M)", "setting": "[3]", "value": "0.344±0.055"},
      {"measurement": "ratio of a new intima to a new media (I/M)", "setting": "[4]", "value": "0.55±0.02"}
    ]}
  ]
}
